We go through 56 compounds from paper PMC9021288 (Nature Communications, 2022).

The subject of one data set is TA98, TA100, TA102, TA1535, TA1537.
Assay: not given
To be noted: TA98, -S-9, 5 ug/plate, positive control. As to the method:
Safety studies were performed by commercial services using their standard protocols. […] Genotoxicity was investigated using the Ames test (Bacterial Reverse Mutation Assay) (Covance Laboratories Ltd, North Yorkshire, England). In vitro mammalian cell micronucleus screening assay was studied in human peripheral blood lymphocytes (BioReliance Corporation, Rockville, USA). Cardiotoxicity was determined against the hERG channel in an automated patch clamp assay using the Qpatch or against the hNaV 1.5, hKV 1.5 and hCaV 1.2 using a manual patch-clamp technique (Metrion Biosciences, Cambridge, UK). Cytotoxicity in human and rat primary hepatocytes was assessed using the CellTiter-Blue assay performed by commercial services (KaLy-Cell). The viability of HepG2 cells was monitored through the addition of 1 mM resazurin. Following 6 h incubation, the relative amount of reduced resazurin was detected in a fluorimeter and compared to the assay controls (vehicle: 0.1% DMSO and positive control: 10 µM puromycin).
As to `O=[N+]([O-])c1ccc2c(c1)Cc1ccccc1-2` [Compound 2NF], the “Fold Increase” value was found to be 49.1 and the “Mean (Revertant Numbers Per Plate)” value was 1375.7.

Still in this data set, the particulars now being: TA100, +S-9, 5 ug/plate, positive control.
As for `Nc1ccc2cc3ccccc3cc2c1` [AAN], the “Fold Increase” value was 21.6 and the “Mean (Revertant Numbers Per Plate)” value worked out at 2606.

The data set is the same for the next values; noted with them: TA100, -S-9, 2 ug/plate, positive control.
As to `[N-]=[N+]=[N-].[Na+]` [NaN3], the “Fold Increase” value is 9.7 and the “Mean (Revertant Numbers Per Plate)” value was found to be 845.

The same data set, now with this note: TA102, +S-9, 20 ug/plate, positive control.
`Nc1ccc2cc3ccccc3cc2c1` [AAN]: the “Fold Increase” value is 11 and the “Mean (Revertant Numbers Per Plate)” value is 2462.

The same data set, now with this note: TA102, -S-9, 0.2 ug/plate, positive control.
With `CO[C@@]12[C@H](COC(N)=O)C3=C(C(=O)C(C)=C(N)C3=O)N1C[C@@H]1N[C@@H]12` [MMC], the “Fold Increase” value is given as 3.3.

Staying with this data set, now noted: TA1535, +S-9, 5 ug/plate, positive control.
For `Nc1ccc2cc3ccccc3cc2c1` [AAN], the “Fold Increase” value worked out at 7.5 and the “Mean (Revertant Numbers Per Plate)” value is listed as 173.3.

Staying with this data set, now noted: TA1535, -S-9, 2 ug/plate, positive control.
Consider `[N-]=[N+]=[N-].[Na+]` [NaN3], for which the “Fold Increase” value is 26.6 and the “Mean (Revertant Numbers Per Plate)” value came out at 672.7.

Still in this data set, the particulars now being: TA1537, +S-9, 5 ug/plate, positive control.
In the case of `Nc1ccc2cc3ccccc3cc2c1` [AAN], the “Fold Increase” value stood at 39.7 and the “Mean (Revertant Numbers Per Plate)” value stood at 277.7.

The data set is the same for the next values; noted with them: TA1537, -S-9, 50 ug/plate, positive control.
In the case of `Nc1c2ccccc2nc2ccccc12` [AAC], the “Fold Increase” value was 54.9 and the “Mean (Revertant Numbers Per Plate)” value stood at 384.3.

A further data set deals with P. falciparum NF54 asexual blood-stage parasites. Nature of the data set: 72-h asexual blood-stage replication assay (SYBR Green). It is filed as cell-based, Plasmodium falciparum. Particulars: asexual blood stages NF54 parasites; read-out: IC50. The method, then:
Replication assays were performed using a SYBR Green method as described previously. Briefly, asynchronous parasites were diluted to 0.83% parasitemia, 3% hematocrit in 30 µl medium, and added to 30 µl of diluted compounds in medium (0.1% DMSO final concentration) in black 384-wells plates. After a 72-h incubation, 30 µl of SYBR Green diluted in lysis buffer was added according to the manufacturer’s protocol (Life Technologies). Fluorescence intensity was measured on a BioTek Synergy 2 Plate Reader after 1-h incubation and was normalized to a DMSO control (100% growth) and DHA- or epoxomicin-treatment (no growth). […] Parasite survival was assessed by flow cytometry on an Accuri C6 (BD Biosciences) with BD C6 Plus software using SYBR Green and MitoTracker Deep Red FM (Life Technologies) as nuclear stain and vital dye, respectively, and data were analyzed using FlowJo (10.5.0). […] Luminescence was measured after 72 h using the Renilla-Glo(R) Luciferase Assay System (Promega E2750) and the GlomAX® Discover Multimode Microplate Reader (Promega). The luminescence values were normalized to DMSO vehicle (100% growth) and 200 nM chloroquine-treated (no growth) samples as controls.
Dose-response assays were analyzed by a nonlinear regression using a four-parameter model and the least squares method to find the best fit. One-way Analysis of variance (ANOVA) was performed using the Bonferroni’s Multiple Comparison Test. For the majority of experiments, 2-4 biological replicates were performed. Typically, 2 replicates were performed for screening activities, and a minimum of 3 replicates are performed for other experiments unless stated otherwise.
The IC50 is the concentration at which inhibition is half-maximal. For the compound `C[C@@H](CNC(=O)[C@H](O)C(C)(C)CO)NC(=O)c1ccc(F)c(Cl)c1` [MMV977407], the concentration for half-maximal inhibition (IC50) was 3.4 nM. `C[C@@H](CNC(=O)[C@H](O)C(C)(C)CO)NC(=O)c1cccc(Cl)c1F` [MMV977411]: the IC50 is 12 nM. As for `CC(CNC(=O)C(C)(O)C(C)(C)CO)NC(=O)CCc1ccccc1F` (mixture of isomers) [MMV1545785], the IC50 stood at 1000 nM. Same read-out and setting: the result for `C[C@@H](CNC(=O)[C@H](O)C(C)(C)CO)NC(=O)c1ccccc1Cl` [MMV892807] reads over 10000 nM; that for `C[C@@H](CNC(=O)[C@H](O)C(C)(C)CO)NC(=O)c1cc[nH]c1` [MMV893376], 1800 nM. As for `C[C@@H](CNC(=O)[C@H](O)C(C)(C)CO)NC(=O)c1ccc(Cl)c(F)c1` [MMV1576725], the IC50 turned out to be 56 nM. Same read-out and setting: under `C[C@@H](CNC(=O)[C@H](O)C(C)(C)CO)NC(=O)c1cccc(C(F)(F)F)c1` [MMV892614] stands 143 nM; under `C[C@@H](CNC(=O)[C@H](O)C(C)(C)CO)NC(=O)c1cc(Cl)c(F)cc1F` [MMV692009], 2.3 nM; under `C[C@@H](CNC(=O)[C@@H](O)C(C)(C)CO)NC(=O)CCc1ccccc1F` [MMV884787], 235 nM. As to `CC(C)(CNC(=O)[C@H](O)C(C)(C)CO)NC(=O)CCc1ccccc1F` [MMV689455], the 50% inhibitory concentration (IC50) came out at 1190 nM. Take `C[C@@H](CNC(=O)[C@H](O)C(C)(C)CO)NC(=O)c1cc2ccccc2s1` [MMV893336]: the IC50 was determined as 19.9 nM. The same measure, in the same setting: under `C[C@H](CNC(=O)[C@H](O)C(C)(C)CO)NC(=O)CCc1ccccc1F` [MMV689260] stands 210 nM; under `C[C@@H](CNC(=O)[C@H](O)C(C)(C)CO)NC(=O)c1ccc[nH]1` [MMV893345], over 10000 nM.

In the case of `C[C@@H](CNC(=O)[C@H](O)C(C)(C)CO)NC(=O)c1c(F)cccc1F` [MMV693185], the IC50 came to 478 nM. `C[C@@H](CNC(=O)[C@H](O)C(C)(C)CO)NC(=O)c1cccc(F)c1F` [MMV1576723]: the IC50 turned out to be 32.7 nM. In the case of `COc1ccccc1C(=O)N[C@@H](C)CNC(=O)[C@H](O)C(C)(C)CO` [MMV892812], the IC50 was over 10000 nM. Same read-out and setting: the result for `Cc1ccccc1C(=O)N[C@@H](C)CNC(=O)[C@H](O)C(C)(C)CO` [MMV1542005] reads over 10000 nM; that for `C[C@@H](CNC(=O)[C@H](O)C(C)(C)CO)NC(=O)c1cccs1` [MMV893344], 18.2 nM. For `Cc1ccc(C(=O)N[C@@H](C)CNC(=O)[C@H](O)C(C)(C)CO)cc1` [MMV1542100], the IC50 was determined as 85 nM. As for `C[C@@H](CNC(=O)[C@H](O)C(C)(C)CO)NC(=O)c1cccc(F)n1` [MMV892814], the IC50 was over 10000 nM. As to `COc1ccc(C(=O)N[C@@H](C)CNC(=O)[C@H](O)C(C)(C)CO)cc1` [MMV892810], the IC50 was 344 nM. The same measure, in the same setting: the result for `C[C@@H](CNC(=O)[C@H](O)C(C)(C)CO)NC(=O)c1ccc(C#N)cc1` [MMV884961] reads 535 nM; that for `C[C@@H](CNC(=O)[C@H](O)C(C)(C)CO)NC(=O)c1ccc(F)c(F)c1` [MMV1576731], 4.6 nM. As for `C[C@@H](CNC(=O)[C@H](O)C(C)(C)CO)NC(=O)c1coc2ccccc12` [MMV893337], the IC50 is 3.9 nM. `C[C@@H](CNC(=O)[C@H](O)C(C)(C)CO)NC(=O)c1cc(Cl)ccc1F` [MMV1576728]: the IC50 turned out to be 2.6 nM. In the case of `Cc1cccc(C(=O)N[C@@H](C)CNC(=O)[C@H](O)C(C)(C)CO)c1` [MMV1542099], the half-inhibitory concentration (IC50) came out at 22 nM. For `C[C@@H](CNC(=O)[C@H](O)C(C)(C)CO)NC(=O)c1cc(Cl)c(Cl)cc1F` [MMV893655], the IC50 was 19.7 nM.

On to `C[C@@H](CNC(=O)[C@H](O)C(C)(C)CO)NC(=O)c1ccccc1F` [MMV154200], for which the IC50 turned out to be 41 nM.

Consider `C[C@@H](CNC(=O)[C@H](O)C(C)(C)CO)NC(=O)c1ccc(F)c(C#N)c1` [MMV977409], for which the IC50 is 84 nM. For the compound `C[C@@H](CNC(=O)[C@H](O)C(C)(C)CO)NC(=O)c1cccc(C#N)c1F` [MMV977410], the IC50 was found to be 19 nM.

Take `C[C@@H](CNC(=O)[C@H](O)C(C)(C)CO)NC(=O)c1cccc(N(C)C)c1` [MMV884970]: the IC50 is over 10000 nM. Turning to `Cc1cc(C(=O)N[C@@H](C)CNC(=O)[C@H](O)C(C)(C)CO)c(F)cc1F` [MMV893115], the IC50 was 66 nM. On to `C[C@@H](CNC(=O)[C@H](O)C(C)(C)CO)c1nnc(CCc2ccccc2F)[nH]1` [MMV884788], for which the 50% inhibitory concentration (IC50) was 554 nM. In the case of `C[C@@H](CNC(=O)[C@H](O)C(C)(C)CO)NC(=O)c1cc(F)ccc1F` [MMV1576724], the IC50 is 7 nM. The same measure, in the same setting: the result for `C[C@@H](CNC(=O)[C@H](O)C(C)(C)CO)NC(=O)c1cc2ccccc2[nH]1` [MMV893121] reads 53 nM; that for `C[C@@H](CNC(=O)[C@H](O)C(C)(C)CO)NC(=O)c1cc2ccccc2o1` [MMV893335], 12.5 nM. The same measure, in the same setting: under `C[C@@H](CNC(=O)[C@H](O)C(C)(C)CO)NC(=O)c1c[nH]c2ccccc12` [MMV893375] stands 41 nM; under `C[C@H](CNC(=O)[C@@H](O)C(C)(C)CO)NC(=O)CCc1ccccc1F` [MMV884968], over 1000 nM. Take `C[C@@H](CNC(=O)[C@H](O)C(C)(C)CO)NC(=O)c1ccoc1` [MMV893339]: the IC50 was determined as 42 nM. In the case of `C[C@@H](CNC(=O)[C@H](O)C(C)(C)CO)NC(=O)c1cccc(Cl)c1` [MMV892808], the IC50 came out at 2.3 nM. Consider `C[C@@H](CNC(=O)[C@H](O)C(C)(C)CO)NC(=O)c1ccccc1C(F)(F)F` [MMV892613], for which the IC50 was over 10000 nM. On to `CCC(CC)(CO)[C@@H](O)C(=O)NC[C@H](C)NC(=O)CCc1ccccc1F` [MMV884964], for which the 50% inhibitory concentration (IC50) is over 1000 nM. Turning to `C[C@@H](CNC(=O)[C@H](O)C(C)(C)CO)NC(=O)c1cccc(S(C)(=O)=O)c1` [MMV884969], the IC50 is over 10000 nM.

As to `CC(C)(CNC(=O)CCc1ccccc1F)NC(=O)[C@H](O)C(C)(C)CO` [MMV689261], the IC50 is over 10000 nM. Take `C[C@@H](CNC(=O)[C@H](O)C(C)(C)CO)NS(=O)(=O)CCc1ccccc1` [MMV692748]: the concentration for half-maximal inhibition (IC50) is over 10000 nM. As for `C[C@@H](CNC(=O)[C@H](O)C(C)(C)CO)NC(=O)c1ccc(C(F)(F)F)cc1` [MMV892612], the IC50 worked out at 132 nM. With `COc1cccc(C(=O)N[C@@H](C)CNC(=O)[C@H](O)C(C)(C)CO)c1` [MMV892811], the IC50 came to 32 nM.

Regarding `C[C@@H](CNC(=O)[C@H](O)C(C)(C)CO)NC(=O)c1ccc(Cl)cc1` [MMV892809], the concentration for half-maximal inhibition (IC50) was determined as 103 nM.

With `C[C@@H](CNC(=O)[C@H](O)C(C)(C)CO)NC(=O)c1ccsc1` [MMV893340], the IC50 was 14.6 nM. Turning to `C[C@@H](CNC(=O)[C@H](O)C(C)(C)CO)NC(=O)c1csc2ccccc12` [MMV893338], the 50% inhibitory concentration (IC50) was determined as 195 nM.

With `CC[C@@H](CNC(=O)[C@H](O)C(C)(C)CO)NC(=O)CCc1ccccc1F` [MMV692676], the IC50 amounted to 122 nM.
